Assay results from US9920012B2, “Indazole guanidine F1F0-ATPase inhibitors and therapeutic uses thereof” (Lycera Corporation, priority 2012, dated 2018).
pEC50, pIC50: −log10 of the molar value. Structures can show the parent of a compound that is named as a salt. Where two headings read alike, the source gives them in different places.

Columns and labels:
F1F0-ATPase = molecular target: T1, F1F0-ATPase (Bos taurus, UniProt P13621); assay: Inhibition of F1F0-ATPase activity in synthesizing ATP; assay type: biochemical; details: inhibition of ATP synthesis; detection limit IC50=16 μM; read-out: ATP Syn IC50
T1 construct: from tissue
Method: (§1) Exemplary compounds described in above Examples were tested for activity against F1F0-ATPase by measuring the ability of the compounds to inhibit ATP synthesis. In addition, the compounds were assessed for cytotoxicity in Ramos cells. Inhibition of F1F0-ATPase activity in synthesizing ATP and cytotoxicity in Ramos cells were measured according to the procedures described in K. M. Johnson et al. Chemistry & Biology 2005, 12, 485-496.

Ramos cells = assay: Cytotoxicity in Ramos cells; assay type: cell-based; details: detection limit EC50=16 μM, read-out: Ramos Cell EC50
Method: as §1

COC[C@H](C)NC(=NC(=O)c1ccc(F)c(F)c1)Nc1nn(C(=O)[C@@H](N)C(C)C)c2cc(C(F)(F)F)ccc12 [Compound 6, N-(((1-((S)-2-Amino-3-methylbutanoyl)-6-(trifluoromethyl)-1H-indazol-3-yl)amino)(((S)-1-methoxypropan-2-yl)amino)methylene)-3,4-difluorobenzamide hydrochloride salt]
pIC50 (F1F0-ATPase): 4.80 to 5.30
pEC50 (Ramos cells; Homo sapiens): < 4.80

CC(C)(C)N/C(=N/C(=O)c1ccc(F)c(F)c1)Nc1n[nH]c2cc(C(F)(F)F)ccc12 [Compound A-7]
pIC50 (F1F0-ATPase): < 4.80
pEC50 (Ramos cells): > 5.30

CCOCCN/C(=N/C(=O)c1ccc(F)c(F)c1)Nc1n[nH]c2cc(Cl)ccc12 [Compound A-61]
pIC50 (F1F0-ATPase): > 5.30
pEC50 (Ramos cells): > 5.30

CCOCCN/C(=N/C(=O)c1ccc(F)c(F)c1)Nc1n[nH]c2cc(F)ccc12 [Compound A-81]
pIC50 (F1F0-ATPase): > 5.30
pEC50 (Ramos cells): > 5.30

CC(C)(C)N/C(=N/C(=O)c1ccc(Cl)c(F)c1)Nc1n[nH]c2cc(C(F)(F)F)ccc12 [Compound A-13]
pIC50 (F1F0-ATPase): > 5.30
pEC50 (Ramos cells): 4.80 to 5.30

COC[C@H](C)N/C(=N/C(=O)c1ccc(N2CCOCC2)nc1)Nc1n[nH]c2cc(C(F)(F)F)ccc12 [Compound A-26]
pIC50 (F1F0-ATPase): 4.80 to 5.30
pEC50 (Ramos cells): < 4.80

CC(C)CN/C(=N/C(=O)c1ccc2nonc2c1)Nc1n[nH]c2cc(F)ccc12 [Compound A-29]
pIC50 (F1F0-ATPase): > 5.30
pEC50 (Ramos cells): < 4.80

CCC(C)NC(=NC(=O)c1ccc(Cl)c(F)c1)Nc1n[nH]c2cc(C(F)(F)F)ccc12 (stereo not shown) [Compound A-16]
pIC50 (F1F0-ATPase): > 5.30
pEC50 (Ramos cells; Homo sapiens): 4.80 to 5.30

CC1(CNC(=NC(=O)c2ccc(F)c(F)c2)Nc2n[nH]c3ccc(C(F)(F)F)cc23)COC1 [Compound A-55]
pIC50 (F1F0-ATPase): < 4.80
pEC50 (Ramos cells; Homo sapiens): < 4.80

O=C(/N=C(\Nc1n[nH]c2cc(C(F)(F)F)ccc12)NC1CCC1)c1ccc(N2CCOCC2)nc1 [Compound A-25]
pIC50 (F1F0-ATPase): > 5.30
pEC50 (Ramos cells; Homo sapiens): 4.80 to 5.30

CCOCCNC(=NC(=O)c1cccc(Cl)c1)Nc1n[nH]c2cc(F)ccc12 [Compound A-99]
pIC50 (F1F0-ATPase): > 5.30
pEC50 (Ramos cells): 4.80 to 5.30

CCOCCN/C(=N/C(=O)c1ccc(Cl)cc1)Nc1n[nH]c2cc(Cl)ccc12 [Compound A-63]
pIC50 (F1F0-ATPase): > 5.30
pEC50 (Ramos cells): 4.80 to 5.30

CC(C)CN/C(=N/C(=O)c1ccc(N2CCOCC2)nc1)Nc1n[nH]c2cc(C(F)(F)F)ccc12 [Compound A-24]
pIC50 (F1F0-ATPase): > 5.30
pEC50 (Ramos cells): 4.80 to 5.30

CC1(CN/C(=N/C(=O)c2ccc(F)c(F)c2)Nc2n[nH]c3ccccc23)COC1 [Compound A-39]
pIC50 (F1F0-ATPase): 4.80 to 5.30
pEC50 (Ramos cells): < 4.80

CC(C)(C)CNC(=NC(=O)c1ccc2nonc2c1)Nc1n[nH]c2cc(F)ccc12 [Compound A-28]
pIC50 (F1F0-ATPase): 4.80 to 5.30
pEC50 (Ramos cells; Homo sapiens): < 4.80

CC(C)(C)N/C(=N/C(=O)c1ccc(N2CCOCC2)nc1)Nc1n[nH]c2cc(C(F)(F)F)ccc12 [Compound A-23]
pIC50 (F1F0-ATPase): > 5.30
pEC50 (Ramos cells): 4.80 to 5.30

CC(C)(C)CNC(=NC(=O)c1ccc(F)c(F)c1)Nc1n[nH]c2ccccc12 [Compound A-36]
pIC50 (F1F0-ATPase): > 5.30
pEC50 (Ramos cells; Homo sapiens): > 5.30

O=C(/N=C(/NCCOCCO)Nc1n[nH]c2cc(C(F)(F)F)ccc12)c1ccc(Cl)c(F)c1 [Compound A-22]
pIC50 (F1F0-ATPase): < 4.80
pEC50 (Ramos cells): < 4.80

CC(C)CN/C(=N/C(=O)c1ccc(O)cc1)Nc1n[nH]c2cc(F)ccc12 [Compound A-91]
pIC50 (F1F0-ATPase): 4.80 to 5.30
pEC50 (Ramos cells): < 4.80

CC(C)CN/C(=N/C(=O)c1ccc(F)c(F)c1)Nc1n[nH]c2ncccc12 [Compound A-70]
pIC50 (F1F0-ATPase): < 4.80
pEC50 (Ramos cells): < 4.80

COCC(C)NC(=NC(=O)c1ccc(F)c(F)c1)Nc1n[nH]c2cncc(Cl)c12 (stereo not shown) [Compound A-43]
pIC50 (F1F0-ATPase): < 4.80
pEC50 (Ramos cells; Homo sapiens): < 4.80

CC(C)CN/C(=N/C(=O)c1ccc(F)c(F)c1)Nc1n[nH]c2cccc(F)c12 [Compound A-6]
pIC50 (F1F0-ATPase): < 4.80
pEC50 (Ramos cells): < 4.80

CC(C)N/C(=N/C(=O)c1ccc(Cl)c(F)c1)Nc1n[nH]c2cc(C(F)(F)F)ccc12 [Compound A-18]
pIC50 (F1F0-ATPase): > 5.30
pEC50 (Ramos cells): < 4.80

CC(C)CN/C(=N/C(=O)c1ccc(F)c(F)c1)Nc1n[nH]c2ccccc12 [Compound A-35]
pIC50 (F1F0-ATPase): < 4.80
pEC50 (Ramos cells): < 4.80

CC(C)(C)CN/C(=N/C(=O)c1ccc(F)c(F)c1)Nc1n[nH]c2ccc(C(F)(F)F)cc12 [Compound A-52]
pIC50 (F1F0-ATPase): > 5.30
pEC50 (Ramos cells): > 5.30

COCC(C)NC(=NC(=O)c1ccc(F)c(F)c1)Nc1n[nH]c2c(C(F)(F)F)cccc12 (stereo not shown) [Compound A-59]
pIC50 (F1F0-ATPase): < 4.80
pEC50 (Ramos cells; Homo sapiens): < 4.80

CC(C)(C)N/C(=N/C(=O)c1ccc(F)c(F)c1)Nc1n[nH]c2cccnc12 [Compound A-45]
pIC50 (F1F0-ATPase): 4.80 to 5.30
pEC50 (Ramos cells): < 4.80

CCOCCNC(=NC(=O)c1ccc(F)c(F)c1)Nc1n[nH]c2c(C(F)(F)F)cccc12 [Compound A-60]
pIC50 (F1F0-ATPase): 4.80 to 5.30
pEC50 (Ramos cells; Homo sapiens): < 4.80

CCOCCNC(=NC(=O)c1ccc(F)c(F)c1)Nc1n[nH]c2ccc(C(F)(F)F)cc12 [Compound A-54]
pIC50 (F1F0-ATPase): > 5.30
pEC50 (Ramos cells; Homo sapiens): < 4.80

CCOCCCN/C(=N/C(=O)c1ccc(Cl)c(F)c1)Nc1n[nH]c2cc(C(F)(F)F)ccc12 [Compound A-15]
pIC50 (F1F0-ATPase): > 5.30
pEC50 (Ramos cells): > 5.30

CC(C)CNC(=NC(=O)c1ccc(O)cc1)Nc1n[nH]c2cc(Cl)ccc12 [Compound A-108]
pIC50 (F1F0-ATPase): > 5.30
pEC50 (Ramos cells): 4.80 to 5.30

COC[C@H](C)N/C(=N/C(=O)c1ccc(F)c(F)c1)Nc1n[nH]c2cc(F)ccc12 [Compound A-79]
pIC50 (F1F0-ATPase): > 5.30
pEC50 (Ramos cells): > 5.30

CCC(C)N/C(=N/C(=O)c1ccc(F)c(F)c1)Nc1n[nH]c2cc(C(F)(F)F)ccc12 (stereo not shown) [Compound A-9]
pIC50 (F1F0-ATPase): > 5.30
pEC50 (Ramos cells): > 5.30

CCOCCNC(=NC(=O)c1ccc(F)c(F)c1)Nc1n[nH]c2cc(Cl)c(F)cc12 [Compound A-102]
pIC50 (F1F0-ATPase): > 5.30
pEC50 (Ramos cells): > 5.30

O=C(/N=C(/Nc1cc(F)cc(Cl)c1)Nc1n[nH]c2cccc(F)c12)c1ccc(F)c(F)c1 [Compound A-113]
pIC50 (F1F0-ATPase): < 4.80
pEC50 (Ramos cells; Homo sapiens): < 4.80

CC(C)(O)CN/C(=N/C(=O)c1ccc(F)c(F)c1)Nc1n[nH]c2cc(F)ccc12 [Compound A-83]
pIC50 (F1F0-ATPase): > 5.30
pEC50 (Ramos cells): > 5.30

CCOCCCN/C(=N/C(=O)c1ccc(F)c(F)c1)Nc1n[nH]c2c(F)cccc12 [Compound A-77]
pIC50 (F1F0-ATPase): 4.80 to 5.30
pEC50 (Ramos cells): > 5.30

CC(C)(C)N/C(=N/C(=O)c1ccc(F)c(F)c1)Nc1n[nH]c2c(C(F)(F)F)cccc12 [Compound A-57]
pIC50 (F1F0-ATPase): < 4.80
pEC50 (Ramos cells): 4.80 to 5.30

COCC(C)NC(=NC(=O)c1ccc(Cl)cc1)Nc1n[nH]c2cc(Cl)ccc12 (stereo not shown) [Compound A-64]
pIC50 (F1F0-ATPase): > 5.30
pEC50 (Ramos cells; Homo sapiens): > 5.30

CC(C)CN/C(=N/C(=O)c1ccc(F)c(F)c1)Nc1n[nH]c2c(O)ccc(F)c12 [Compound A-56]
pIC50 (F1F0-ATPase): > 5.30
pEC50 (Ramos cells): > 5.30

COC[C@H](C)N/C(=N/C(=O)c1ccc(F)c(F)c1)Nc1n[nH]c2cccnc12 [Compound A-48]
pIC50 (F1F0-ATPase): < 4.80
pEC50 (Ramos cells): < 4.80

CCOCCNC(=NC(=O)c1cccc(Cl)c1)Nc1n[nH]c2cc(Cl)c(F)cc12 [Compound A-106]
pIC50 (F1F0-ATPase): > 5.30
pEC50 (Ramos cells; Homo sapiens): > 5.30

CC(C)CN/C(=N/C(=O)c1ccc(F)c(F)c1)Nc1n[nH]c2cc(Br)ccc12 [Compound A-68]
pIC50 (F1F0-ATPase): > 5.30
pEC50 (Ramos cells): > 5.30

CC(C)CN/C(=N/C(=O)c1ccc(F)c(F)c1)Nc1n[nH]c2cncc(Cl)c12 [Compound A-41]
pIC50 (F1F0-ATPase): > 5.30
pEC50 (Ramos cells): > 5.30

CCOCCN/C(=N/C(=O)c1ccc(Cl)c(F)c1)Nc1n[nH]c2cc(C(F)(F)F)ccc12 [Compound A-20]
pIC50 (F1F0-ATPase): > 5.30
pEC50 (Ramos cells): < 4.80

COC[C@H](C)N/C(=N/C(=O)c1ccc(F)c(F)c1)Nc1n[nH]c2ccccc12 [Compound A-37]
pIC50 (F1F0-ATPase): 4.80 to 5.30
pEC50 (Ramos cells): < 4.80

CC(C)(C)N/C(=N/C(=O)c1ccc(F)c(F)c1)Nc1n[nH]c2ccc(C(F)(F)F)cc12 [Compound A-50]
pIC50 (F1F0-ATPase): > 5.30
pEC50 (Ramos cells): > 5.30

CC(C)(C)CNC(=NC(=O)c1ccc(F)c(F)c1)Nc1n[nH]c2cccnc12 [Compound A-47]
pIC50 (F1F0-ATPase): < 4.80
pEC50 (Ramos cells; Homo sapiens): < 4.80

O=C(/N=C(/Nc1cc(F)cc(Cl)c1)Nc1n[nH]c2ccccc12)c1ccc(Cl)cc1 [Compound A-111]
pIC50 (F1F0-ATPase): > 5.30
pEC50 (Ramos cells; Homo sapiens): 4.80 to 5.30

CC(C)(C)N/C(=N/C(=O)c1ccc(F)c(F)c1)Nc1n[nH]c2cncc(F)c12 [Compound A-32]
pIC50 (F1F0-ATPase): > 5.30
pEC50 (Ramos cells): 4.80 to 5.30

COc1cc(F)c2c(NC(=NC(=O)c3ccc(F)c(F)c3)NC(C)(C)C)n[nH]c2c1 [Compound A-110]
pIC50 (F1F0-ATPase): > 5.30
pEC50 (Ramos cells): 4.80 to 5.30

CC(C)N/C(=N/C(=O)c1ccc(F)c(F)c1)Nc1n[nH]c2cc(C(F)(F)F)ccc12 [Compound A-10]
pIC50 (F1F0-ATPase): > 5.30
pEC50 (Ramos cells): > 5.30

CC(C)CNC(=NC(=O)c1cccc(Cl)c1)Nc1n[nH]c2cc(Cl)c(F)cc12 [Compound A-105]
pIC50 (F1F0-ATPase): > 5.30
pEC50 (Ramos cells): 4.80 to 5.30

CCOCCN/C(=N/C(=O)c1ccc(Cl)cc1)Nc1n[nH]c2cc(F)ccc12 [Compound A-82]
pIC50 (F1F0-ATPase): > 5.30
pEC50 (Ramos cells): > 5.30

COC[C@H](C)N/C(=N/C(=O)c1ccc(F)c(F)c1)Nc1n[nH]c2cc(Cl)ccc12 [Compound 1, (S)-N-(((6-Chloro-1H-indazol-3-yl)amino)((1-methoxypropan-2-yl)amino)methylene)-3,4-difluorobenzamide]
pIC50 (F1F0-ATPase): > 5.30
pEC50 (Ramos cells; Homo sapiens): > 5.30

CC(C)CN/C(=N/C(=O)c1cccc(O)c1)Nc1n[nH]c2cc(F)ccc12 [Compound A-95]
pIC50 (F1F0-ATPase): > 5.30
pEC50 (Ramos cells): 4.80 to 5.30

CC(C)CN/C(=N/C(=O)c1ccc(F)c(F)c1)Nc1n[nH]c2cccnc12 [Compound A-46]
pIC50 (F1F0-ATPase): < 4.80
pEC50 (Ramos cells): < 4.80

CC(C)CN/C(=N/C(=O)c1ccc(F)c(F)c1)Nc1n[nH]c2ccc(Br)cc12 [Compound A-67]
pIC50 (F1F0-ATPase): > 5.30
pEC50 (Ramos cells): > 5.30

CC(C)(C)NC(=NC(=O)c1cccc(Cl)c1)Nc1n[nH]c2cc(Cl)c(F)cc12 [Compound A-104]
pIC50 (F1F0-ATPase): > 5.30
pEC50 (Ramos cells): > 5.30
